Experimental data reported in ChEMBL document CHEMBL4190390, “Rational Design of Novel 1,3-Oxazine Based β-Secretase (BACE1) Inhibitors: Incorporation of a Double Bond To Reduce P-gp Efflux Leading to Robust Aβ Reduction in the Brain” (J Med Chem, 2018).

Experiments:
[1] = Dissociation constant, pKa of the compound by capillary electrophoresis method; type: physicochemical
[2] = Drug degradation of the compound at 40 degC/89 % relative humidity; type: physicochemical; details: read-out: Drug degradation

| SMILES | pKa [1] | degraded [2] |
| --- | --- | --- |
| C[C@@]1(c2ccccc2F)CCOC(N)=N1 | 9.8 |  |
| C[C@@]1(c2cc(NC(=O)c3ccc(C#N)cn3)ccc2F)C=C(CF)OC(N)=N1 |  | 0.06% |
